The data set concerns the target APOL1. As to conditions: ASO.

Values joined by “and” are separate entries in the source; they are usually repeats but may differ in a detail not shown here. Equal values may be shown once. After the bases stand the sugars from the 5' end (letter, count) and the backbone: PS all phosphorothioate, else s phosphorothioate and o phosphodiester by linkage. Methylation of C is not given here. e = 2'-O-(2-methoxyethyl) (MOE); k = constrained ethyl (cEt); d = 2'-deoxy (DNA)

Turning to “AACGCAATGCTGACTT (sugars k2 d4 e3 k2 d5, PS)”, the target mRNA inhibition (A431, 2 µM) worked out at 82%. For the sequence “AAGATTGGCTCTGGCT (sugars k3 d4 k3 e1 d5, PS)”, for the setting “A431, 2 µM”, the target mRNA inhibition was 35%.

The sequence “AAGATTGGCTCTGGCT (sugars kkdddddkekeddddd, PS)” had a target mRNA inhibition (A431, 2 µM) of 65%.

Take “AAGATTGGCTCTGGCT (sugars kkddddkekekkdddd, PS)”: the target mRNA inhibition (A431, 2 µM) turned out to be 2%. Consider “AAGATTGGCTCTGGCT (sugars kkkddddkekekdddd, PS)”, for which the target mRNA inhibition (A431, 2 µM) was 23%.

With “AAGTATTGCCAGCTAA (sugars k3 d4 k3 e1 d5, PS)”, under “A431, 2 µM”, the target mRNA inhibition is 49%. As for “AAGTATTGCCAGCTAA (sugars kkdddddkekeddddd, PS)”, under “A431, 2 µM”, the target mRNA inhibition came out at 73%.

Regarding AAGTGCAACCAATCAA (sugars k4 d9 k3, PS), the target mRNA inhibition reads like this: (A431, 0.0625 µM) 36%; (A431, 0.25 µM) 63%; (A431, 1 µM) 83%. Turning to AATGAACGCAATGCTG (sugars k4 d9 k3, PS), the target mRNA inhibition is, setting by setting: (A431, 0.0625 µM) 35%; (A431, 0.25 µM) 50%; (A431, 1 µM) 75%. On to AATGTTTGCATTTGGG (sugars k4 d9 k3, PS), for which the target mRNA inhibition (A431, 0.0625 µM) was determined as 95%; the target mRNA inhibition (A431, 0.25 µM) is 99% and 97%; the target mRNA inhibition (A431, 1 µM) was 100% and 98%.

In turn, “AATTCTATTAGAGGGC (sugars k3 d4 k3 e1 d5, PS)” yielded a target mRNA inhibition (A431, 2 µM) of 70%. In turn, “AATTCTATTAGAGGGC (sugars kkkddddkekekdddd, PS)” registered a target mRNA inhibition (A431, 2 µM) of 41%. Regarding “ACACATCATTGGGTTA (sugars kkkddddkekeddddd, PS)”, for the setting “A431, 2 µM”, the target mRNA inhibition stood at 58%. In the case of “ACACATCATTGGGTTA (sugars kkkddddkekekdddd, PS)”, the target mRNA inhibition (A431, 2 µM) was determined as 32%.

As to ACAGCATTGAGTACAA (sugars k4 d9 k3, PS), the target mRNA inhibition (A431, 0.0625 µM) is 44%; the target mRNA inhibition (A431, 0.25 µM) worked out at 78%; the target mRNA inhibition (A431, 1 µM) was found to be 90%. “ACGCAATGCTGACTTG (sugars k3 d4 k3 e1 d5, PS)” came in with a target mRNA inhibition (A431, 2 µM) of 88%.

In the case of “ACGCAATGCTGACTTG (sugars kekddddeekkddddd, PS)”, the target mRNA inhibition (A431, 2 µM) is 91%. Turning to “ACGCAATGCTGACTTG (sugars kkddddekekeddddd, PS)”, the target mRNA inhibition worked out at 6% (A431, 0.0156 µM); 23% (A431, 0.0625 µM); 59% (A431, 0.25 µM); 80% (A431, 1 µM); 92% (A431, 2 µM). In turn, “ACGCAATGCTGACTTG (sugars kkddddkekekddddd, PS)” returned a target mRNA inhibition (A431, 2 µM) of 79%.

As for “ACGCAATGCTGACTTG (sugars kkkddddkdkdkdddd, PS)”, the target mRNA inhibition (A431, 2 µM) came to 70%.

“ACTTTATACCAGTGTC (sugars k2 d4 e3 k2 d5, PS)” gave a target mRNA inhibition (A431, 2 µM) of 91%.

For AGCATCAAAAACCTGG (sugars k4 d9 k3, PS), the target mRNA inhibition by setting is: (A431, 0.0625 µM) 66%; (A431, 0.25 µM) 81%; (A431, 1 µM) 89%. Sequence “AGCTTTAAACTCAGGT (sugars kkkddddkekekdddd, PS)” gave a target mRNA inhibition (A431, 2 µM) of 64%. In the case of AGGTTGTCCAGAGCTT (sugars k4 d9 k3, PS), the target mRNA inhibition reads like this: (A431, 0.0625 µM) 51%; (A431, 0.25 µM) 60%; (A431, 1 µM) 69%. Consider AGTATTGCCAGCTAAG (sugars k4 d9 k3, PS), for which the target mRNA inhibition by setting is: (A431, 0.0625 µM) 63%; (A431, 0.25 µM) 89%; (A431, 1 µM) 97%.

As for “AGTATTGCCAGCTAAG (sugars kkdddddkekeddddd, PS)”, for the setting “A431, 2 µM”, the target mRNA inhibition was 86%.

Where the note is “A431, 2 µM”, “AGTATTGCCAGCTAAG (sugars kkddddekekeddddd, PS)” returned a target mRNA inhibition of 78%. “AGTATTGCCAGCTAAG (sugars kkddddkekekddddd, PS)”: the target mRNA inhibition (A431, 2 µM) worked out at 65%. “AGTATTGCCAGCTAAG (sugars kkddddkekekkdddd, PS)”: under “A431, 2 µM”, the target mRNA inhibition was found to be 34%. For the setting “A431, 2 µM”, “AGTATTGCCAGCTAAG (sugars kkkddddkekekdddd, PS)” showed a target mRNA inhibition of 66%. Regarding “AGTATTGTTTTTGTGG (sugars k2 d4 e4 k2 d4, PS)”, the target mRNA inhibition (A431, 2 µM) worked out at 85%. Where the note is “A431, 2 µM”, “AGTATTGTTTTTGTGG (sugars k3 d4 k3 e1 d5, PS)” came in with a target mRNA inhibition of 89%.

Turning to “AGTATTGTTTTTGTGG (sugars kkddddkekekkdddd, PS)”, the target mRNA inhibition (A431, 2 µM) stood at 66%.

Turning to “AGTTTTGTAAGTGCAA (sugars kkkddddkekekdddd, PS)”, the target mRNA inhibition (A431, 2 µM) came out at 77%. With ATAATGGTAGGTCTAC (sugars k4 d9 k3, PS), the target mRNA inhibition is, setting by setting: (A431, 0.0625 µM) 42%; (A431, 0.25 µM) 78%; (A431, 1 µM) 90%. The sequence “ATATCAGATGGGTACT (sugars k2 d4 e3 k2 d5, PS)” had a target mRNA inhibition (A431, 2 µM) of 52%. For “ATATCAGATGGGTACT (sugars kkddddkekekddddd, PS)”, where the note is “A431, 2 µM”, the target mRNA inhibition was found to be 21%. For the sequence “ATCAGATGGGTACTTC (sugars kekddddeekkddddd, PS)”, the target mRNA inhibition (A431, 2 µM) amounted to 91%. Still for that read-out and setting: in the case of “ATCAGATGGGTACTTC (sugars kkddddekekeddddd, PS)” it was 73%.
